Source: patent US11439657B2, “Cancer stem cell growth inhibitor using miRNA” (CancerStem Tech Inc., priority 2017, dated 2022)

Tests used:
Type in all cases: cell-based
[1] = system: human large bowel cancer cells (DLD1 line and HT29 line); assay: Colony formation assay; conditions: DLD1 and HT29 lines; 50 nM; culture for 10 days; versus control miRNA; FIG. 14
Procedure: A cell suspension prepared by suspending human large bowel cancer cells (DLD1 line and HT29 line) in RPMI medium (containing 10% by volume FBS) was seeded in each well of a 6-well plate at 3×10^5 cells/well, followed by culture for 2 days. Then, the medium was changed to RPMI medium (containing no FBS), and a mixture of lipofectamin RNAiMAX Regent (final concentration in each well: 0.03 μL/ml) and hsa-miR-3065-3p (final concentration in each well: 50 nM) was added for transfection, followed by culture for 8 hours. Then, cells after transfection were recovered and suspended in RPMI medium (containing 10% by volume FBS), and were seeded in each well of a 6-well plate at 500 cells/well, followed by culture for 10 days. Thereafter, the culture supernatant was removed, and cells were fixed with methanol and then stained with crystal violet to count the formed colonies. In addition, tests were also performed under the same condition on a case where a control miRNA (SEQ ID NO: 9) was used (control miRNA, negative control) in place of hsa-miR-3065-3p.

[2] = system: human large bowel cancer cells (HT29 line, HCT116 line and DLD1 line); assay: Proliferation assay (absorbance at 450 nm over time); conditions: HT29, HCT116 and DLD1 lines; 50 nM; culture for 96 hours; versus control miRNA; FIG. 13
Procedure: A cell suspension prepared by suspending human large bowel cancer cells (HT29 line, HCT116 line and DLD1 line) in DMEM medium (containing 10% by volume FBS) was seeded in each well of a 96-well plate at 3×10^3 cells/well, followed by culture at 37° C. overnight. Then, a mixture of lipofectamin RNAiMAX, Reagent (final concentration in each well: 0.03 μL/ml) and hsa-miR-3065-3p (final concentration in each well: 50 nM) was added for transfection. Subsequently, culture was carried out for 96 hours, and the absorbance at 450 nm was measured over time. In addition, tests were also performed wider the same condition on a case where a control miRNA (SEQ ID NO: 9) was used (control miRNA, negative control) in place of hsa-miR-3065-3p.
In FIG. 13, the time-course of relative values of the absorbance is shown, in which the relative values were determined when the absorbance after culture for 24 hours from transfection of hsa-miR-3065-3p was 1. […] This is because, as described above, among human large bowel cancer cells (HT29 line, HCT116 line and DLD1 line), cancer stem cells are present, so that hsa-miR-3065-3p is considered to intensively suppress proliferation of the cancer stem cells in particular, leading to the result.

[3] = system: human large bowel cancer cells (DLD1 line); assay: Wound healing assay; conditions: 20 pmol/well, wound area at 24 and 48 hours, compared to the negative control, FIG. 17
Procedure: Wound healing assay was performed using Culture-Insert (NIPPON Genetics Co, Ltd). In each well of a 24-well plate, 70 μl of cell suspension (4.9×10^4 cells/well) prepared by suspending human large bowel cancer cells (DLD1 line) in RPMI medium (containing 10% by volume FBS) and an insert that could create a constant gap of 0.5±0.05 mm in width between cells were placed, followed by culture for 1 day, so that a single layer of cells and an area where there is no cell (wound area) corresponding to the gap were formed at the bottom of the well. Then, the insert and culture supernatant were remove, 500 μl of DMEM medium (serum free) was added to each well, and further a mixture of lipofectamin RNAiMAX Regent (final concentration in well: 2 μl/well) and hsa-miR-3065-3p (final concentration in well: 20 pmol/well) was added, followed by culture for 1 day. Thereafter, the medium was changed to RPMI medium (containing 10% by volume FBS), followed by culture for 48 hours. The culture using RPMI medium (containing 10% by volume FBS) had the medium replaced with a fresh medium at 24 hours after the start of culture. The area of wound area was determined at 0, 24 and 48 hours from the start of culture using RPMI medium (containing 10% by volume FBS). When the wound area at 0 hour from the start of culture was 100%, the percentages of wound area at 24 and 48 hours after culture were determined. […]

[4] = system: human large bowel cancer cells (DLD1 line); assay: Infiltration assay (Matrigel Invasion Chambers); conditions: 20 pmol/cell culture insert, 48 hours, versus control miRNA, FIG. 15
Procedure: The infiltration assay was performed using BD Matrigel Invasion Chambers, 12 Chambers per 24-Well Plate (BD Biosciences). First, […] of RPMI medium (containing 10% by volume FBS) was added in the wells of a companion plate. Furthermore, in a cell culture insert having a Matrigel basement membrane, a mixture of human large bowel cancer cells (DLD1 line) at 1×10^6 cells/well, lipofectamin RNAiMAX Regent (final concentration in the cell culture insert: 2 μL/ml) and hsa-miR-3065-3p (final concentration in the cell culture insert: 20 pmol/cell culture insert) was added, followed by culture for 48 hours. Thereafter, the cell culture insert was removed, and cells adhering to the outside of the Matrigel basement membrane were fixed with formalin and then stained with hematoxylin to count the cells migrated to the outside of the Matrigel basement membrane. In addition, tests were also performed under the same condition on a case where a control miRNA (SEQ ID NO: 9) was used (control miRNA, negative control) in place of hsa-miR-3065-3p.

“hsa-miR-3065-3p: human-derived miR-3065-3p; base sequence set forth in SEQ ID NO: 2 as mature miRNA (UCAGCACCAGGAUAUUGUUGGAG; listed as RNA, chemistry not given here; listed as Homo sapiens)” was tested. Which “colony forming ability of human large bowel cancer cells” value [1] did it give?
Its value is “able to inhibit the colony forming ability”.

And the “proliferation inhibitory effect on human large bowel cancer cells” value [2]?
The value was “high proliferation inhibitory effect”.

What about the “decrease in wound area (migration)” value [3] of the same substance?
Its value is “significantly suppressed”.

And the “migration ability of human large bowel cancer cells (cells migrated to the outside of the Matrigel basement membrane)” value [4]?
Its value is “able to inhibit the migration ability”.
